Data from PubChem BioAssay (NCI).
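Assay format: 96-well plates, 48-hour exposure. GI50: concentration for 50% inhibition of growth. The concentration for full growth arrest is given as TGI.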

Key:
Test in all cases: inhibition of tumour cell growth, NCI panel, 48 h
[1] = test system: SN12C renal
[2] = test system: LOX IMVI melanoma
[3] = test system: CAKI-1 renal
[4] = test system: HOP-92 NSCLC
[5] = test system: OVCAR-5 ovarian
[6] = test system: SNB-75 CNS
[7] = test system: SF-268 CNS
[8] = test system: NCI-H522 lung
[9] = test system: K-562 leukemia
[10] = test system: MDA-MB-231 breast
[11] = test system: MALME-3M melanoma
[12] = test system: M14 melanoma
[13] = test system: T-47D breast
[14] = test system: 786-0 renal
[15] = test system: OVCAR-3 ovarian
[16] = test system: SW-620 colon
[17] = test system: RPMI-8226 leukemia
[18] = test system: IGROV1 ovarian
[19] = test system: UACC-257 melanoma
[20] = test system: MDA-MB-435
[21] = test system: PC-3 prostate
[22] = test system: MOLT-4 leukemia
[23] = test system: COLO 205 colon
[24] = test system: KM12 colon
[25] = test system: TK-10 renal
[26] = test system: SK-MEL-5 melanoma
[27] = test system: OVCAR-8 ovarian
[28] = test system: HT29 colon
[29] = test system: U251 CNS
[30] = test system: UACC-62 melanoma
[31] = test system: ACHN renal
[32] = test system: SK-MEL-2 melanoma
[33] = test system: A549 NSCLC
[34] = test system: CCRF-CEM leukemia
[35] = test system: EKVX NSCLC
[36] = test system: HL-60(TB) leukemia
[37] = test system: UO-31 renal
[38] = test system: HCT-15 colon
[39] = test system: NCI-H460 lung
[40] = test system: BT-549 breast
[41] = test system: HS 578T breast
[42] = test system: DU-145 prostate
[43] = test system: SF-539 CNS
[44] = test system: SK-OV-3 ovarian
[45] = test system: NCI-H23 lung
[46] = test system: SK-MEL-28 melanoma
[47] = test system: RXF 393 renal
[48] = test system: SF-295 CNS
[49] = test system: NCI/ADR-RES ovarian
[50] = test system: MCF7 breast
[51] = test system: HOP-62 NSCLC
[52] = test system: SR leukemia
[53] = test system: NCI-H226 lung
[54] = test system: OVCAR-4 ovarian
[55] = test system: SNB-19 CNS

**Q.** Which GI50 [1] does the source give for COC(=O)C1=C(C(=O)OC)SC(=C(Cl)C(=S)Oc2ccccc2N)S1 here?
**A.** 18.2 µM

**Q.** What about the TGI [1] of the same molecule?
**A.** > 50 µM

**Q.** And the GI50 [2]?
**A.** 9.16 µM

**Q.** And the TGI [2]?
**A.** 22.3 µM

**Q.** What about the GI50 [3] of the same molecule?
**A.** 13.5 µM

**Q.** What about the TGI [3] of the same molecule?
**A.** 40.7 µM

**Q.** What about the GI50 [4] of the same molecule?
**A.** 37.3 µM

**Q.** What about the TGI [4] of the same molecule?
**A.** > 50 µM

**Q.** What about the GI50 [5] of the same molecule?
**A.** 37 µM

**Q.** What about the TGI [5] of the same molecule?
**A.** > 50 µM

**Q.** And the GI50 [6]?
**A.** 35.1 µM

**Q.** What about the TGI [6] of the same molecule?
**A.** > 50 µM

**Q.** And the GI50 [7]?
**A.** 15.9 µM

**Q.** And the TGI [7]?
**A.** > 50 µM

**Q.** What about the GI50 [8] of the same molecule?
**A.** 10.4 µM

**Q.** What about the TGI [8] of the same molecule?
**A.** 31.3 µM

**Q.** And the GI50 [9]?
**A.** 15.8 µM

**Q.** What about the TGI [9] of the same molecule?
**A.** > 50 µM

**Q.** What about the GI50 [10] of the same molecule?
**A.** 28 µM

**Q.** What about the TGI [10] of the same molecule?
**A.** > 50 µM

**Q.** And the GI50 [11]?
**A.** 18.6 µM

**Q.** And the TGI [11]?
**A.** > 50 µM

**Q.** And the GI50 [12]?
**A.** 10.8 µM

**Q.** And the TGI [12]?
**A.** 29.4 µM

**Q.** What about the GI50 [13] of the same molecule?
**A.** > 50 µM

**Q.** What about the TGI [13] of the same molecule?
**A.** > 50 µM

**Q.** And the GI50 [14]?
**A.** 12.3 µM

**Q.** What about the TGI [14] of the same molecule?
**A.** > 50 µM

**Q.** What about the GI50 [15] of the same molecule?
**A.** 10.8 µM

**Q.** And the TGI [15]?
**A.** 36.1 µM

**Q.** What about the GI50 [16] of the same molecule?
**A.** 24.2 µM

**Q.** And the TGI [16]?
**A.** > 50 µM

**Q.** And the GI50 [17]?
**A.** 17.9 µM

**Q.** And the TGI [17]?
**A.** > 50 µM

**Q.** What about the GI50 [18] of the same molecule?
**A.** 3.79 µM

**Q.** And the TGI [18]?
**A.** 14.5 µM

**Q.** What about the GI50 [19] of the same molecule?
**A.** 9.44 µM

**Q.** And the TGI [19]?
**A.** 18.8 µM

**Q.** And the GI50 [20]?
**A.** 8.94 µM

**Q.** What about the TGI [20] of the same molecule?
**A.** 17 µM

**Q.** What about the GI50 [21] of the same molecule?
**A.** 17.9 µM

**Q.** And the TGI [21]?
**A.** > 50 µM

**Q.** And the GI50 [22]?
**A.** 25 µM

**Q.** What about the TGI [22] of the same molecule?
**A.** > 50 µM

**Q.** What about the GI50 [23] of the same molecule?
**A.** 26.7 µM

**Q.** And the TGI [23]?
**A.** > 50 µM

**Q.** And the GI50 [24]?
**A.** > 50 µM

**Q.** What about the TGI [24] of the same molecule?
**A.** > 50 µM

**Q.** And the GI50 [25]?
**A.** 49.5 µM

**Q.** And the TGI [25]?
**A.** > 50 µM

**Q.** What about the GI50 [26] of the same molecule?
**A.** 8.43 µM

**Q.** What about the TGI [26] of the same molecule?
**A.** 17.7 µM

**Q.** And the GI50 [27]?
**A.** 18.7 µM

**Q.** And the TGI [27]?
**A.** > 50 µM

**Q.** And the GI50 [28]?
**A.** 33.7 µM

**Q.** What about the TGI [28] of the same molecule?
**A.** > 50 µM

**Q.** What about the GI50 [29] of the same molecule?
**A.** 16.2 µM

**Q.** What about the TGI [29] of the same molecule?
**A.** > 50 µM

**Q.** And the GI50 [30]?
**A.** 16.5 µM

**Q.** What about the TGI [30] of the same molecule?
**A.** > 50 µM

**Q.** And the GI50 [31]?
**A.** 15 µM

**Q.** What about the TGI [31] of the same molecule?
**A.** > 50 µM

**Q.** And the GI50 [32]?
**A.** 10.2 µM

**Q.** What about the TGI [32] of the same molecule?
**A.** 26.1 µM

**Q.** What about the GI50 [33] of the same molecule?
**A.** 18.1 µM

**Q.** And the TGI [33]?
**A.** > 50 µM

**Q.** And the GI50 [34]?
**A.** > 50 µM

**Q.** And the TGI [34]?
**A.** > 50 µM

**Q.** And the GI50 [35]?
**A.** 46.5 µM

**Q.** What about the TGI [35] of the same molecule?
**A.** > 50 µM

**Q.** What about the GI50 [36] of the same molecule?
**A.** 14.5 µM

**Q.** And the TGI [36]?
**A.** > 50 µM

**Q.** And the GI50 [37]?
**A.** 10.6 µM

**Q.** What about the TGI [37] of the same molecule?
**A.** 35.6 µM

**Q.** And the GI50 [38]?
**A.** 16.4 µM

**Q.** What about the TGI [38] of the same molecule?
**A.** > 50 µM

**Q.** What about the GI50 [39] of the same molecule?
**A.** 13.4 µM

**Q.** And the TGI [39]?
**A.** > 50 µM

**Q.** What about the GI50 [40] of the same molecule?
**A.** 10.2 µM

**Q.** What about the TGI [40] of the same molecule?
**A.** 21.6 µM

**Q.** And the GI50 [41]?
**A.** 15.6 µM

**Q.** What about the TGI [41] of the same molecule?
**A.** 34.2 µM

**Q.** And the GI50 [42]?
**A.** 19.8 µM

**Q.** What about the TGI [42] of the same molecule?
**A.** > 50 µM

**Q.** What about the GI50 [43] of the same molecule?
**A.** 13.4 µM

**Q.** What about the TGI [43] of the same molecule?
**A.** 35.5 µM

**Q.** What about the GI50 [44] of the same molecule?
**A.** 22.3 µM

**Q.** And the TGI [44]?
**A.** > 50 µM

**Q.** What about the GI50 [45] of the same molecule?
**A.** 10.6 µM

**Q.** What about the TGI [45] of the same molecule?
**A.** > 50 µM

**Q.** What about the GI50 [46] of the same molecule?
**A.** > 50 µM

**Q.** And the TGI [46]?
**A.** > 50 µM

**Q.** What about the GI50 [47] of the same molecule?
**A.** 8.38 µM

**Q.** What about the TGI [47] of the same molecule?
**A.** > 50 µM

**Q.** And the GI50 [48]?
**A.** 13.7 µM

**Q.** What about the TGI [48] of the same molecule?
**A.** 41.1 µM

**Q.** What about the GI50 [49] of the same molecule?
**A.** 13.9 µM

**Q.** What about the TGI [49] of the same molecule?
**A.** 37.1 µM

**Q.** And the GI50 [50]?
**A.** 5.95 µM

**Q.** What about the TGI [50] of the same molecule?
**A.** 17.3 µM

**Q.** And the GI50 [51]?
**A.** 20.1 µM

**Q.** What about the TGI [51] of the same molecule?
**A.** 42.1 µM

**Q.** What about the GI50 [52] of the same molecule?
**A.** 12.9 µM

**Q.** And the TGI [52]?
**A.** 35 µM

**Q.** And the GI50 [53]?
**A.** 20.5 µM

**Q.** And the TGI [53]?
**A.** > 50 µM

**Q.** And the GI50 [54]?
**A.** > 50 µM

**Q.** What about the TGI [54] of the same molecule?
**A.** > 50 µM

**Q.** What about the GI50 [55] of the same molecule?
**A.** 25.8 µM

**Q.** And the TGI [55]?
**A.** > 50 µM
